For 42 compounds, GI50 and TGI results are on record in PubChem BioAssay (NCI).

What all share (experiment): NCI-60 cell line screen, 48 h
The subject of experiment [1] is DMS 114 small cell lung.
The subject of experiment [2] is LXFL 529 NSCLC.
Experiment [3] deals with RXF-631 renal.
Experiment [4] relates to KM20L2 colon.
Experiment [5] deals with M19-MEL melanoma.
Experiment [6] concerns XF 498 CNS.
For experiment [7], the system named is MDA-N.
For experiment [8], the system named is DLD-1 colon.
The test system of experiment [9] is HOP-18 NSCLC.

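Where inhibition never reached the appropriate level, the endpoint shown equals the highest concentration tested. Otherwise, values were interpolated linearly from a five-concentration, 48-hour dose response in 96-well plates. Abbreviation: GI50, concentration required for 50% inhibition of growth. TGI denotes the concentration required for complete inhibition of growth.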 Where only a bound is given, the exact number is not on record here.

Turning to `CCC[CH2][Sn]1([CH2]CCC)[O]CC(Cc2ccccc2)[O]1` (stereo not drawn), the GI50 in experiment [1] is 1.72 µM; in experiment [2] it was 1.15 µM; in experiment [3], 1.57 µM; in [4] it was 5.33 µM; in [5], 2.83 µM; in experiment [6] it was 1.74 µM. Moreover, the TGI stood at 3.59 µM in experiment [1]; 2.39 µM in [2]; 2.94 µM in experiment [3]; 18.2 µM in experiment [4]; 15.6 µM in experiment [5]; 3.23 µM in [6].
Take `CC(=O)OCC1OC(n2c(-c3ccc(Cl)cc3)ccc(C#N)c2=S)C(OC(C)=O)C(OC(C)=O)C1OC(C)=O` (stereo not drawn): the TGI in experiment [7] was greater than 100 µM.
`COC(=O)/C=C1/CCC(C(=O)OC)N1` (stereo not drawn): the TGI in experiment [1], in experiment [8], in experiment [2], in experiment [4], in experiment [5] and in experiment [6] was greater than 100 µM in each case.
Take `COC(=O)N(C(=O)OC)C(C(=O)O)C(C)C` (stereo not drawn): the TGI in [9], in experiment [1], in experiment [8], in experiment [2], in experiment [4] and in experiment [5] was greater than 100 µM each time.
With `CCCCCC[N+](C)(C)Cc1ccc(C[N+](C)(C)CCCCCC)cc1`, the TGI in [9] is 21.8 µM; in [8] it was 26.5 µM; in [2] it was 15.4 µM; in [4], 34.4 µM.
In experiment [7], `C=C(C)C(=O)O[C@H]1C[C@@]23O[C@@H]2CCC(=C[C@H]2OC(=O)C(=C)[C@H]12)COC3O` (stereo partly drawn) yielded a TGI greater than 100 µM.
As to `CN(C)CC(C)(C)C(=O)/C=C/c1ccc(/C=C/C(=O)C(C)(C)CN(C)C)cc1`, the TGI in experiment [1] is 2.76 µM; in [8] it was 1.01 µM; in experiment [2], 2.4 µM; in [3], 4.14 µM; in experiment [4], 2.35 µM; in [5], 3.14 µM. The same compound gave a TGI in experiment [6] of 2.55 µM.
For the compound `O=C(O)CCCCCCC[C@H]1S[C@H]1CCCCCCO`, the TGI in experiment [9], in [1], in experiment [8], in [5] and in experiment [6] was greater than 100 µM each time.
Take `[Cl-].[O-]/N=C(\c1ccccc1)c1ccccn1.[O-]/N=C(\c1ccccc1)c1ccccn1.[O-]/N=C(\c1ccccc1)c1ccccn1.[Sm+3]`: the GI50 is 23 µM in experiment [1]; 33 µM in [8]; 41.4 µM in experiment [2]; 40.1 µM in experiment [4]; 21.2 µM in experiment [5]. Besides, the TGI in [1] is 72 µM; in experiment [8] it was greater than 100 µM; in [2], greater than 100 µM; in experiment [4], greater than 100 µM; in experiment [5], 45.7 µM.
For `Cc1ccc(SC(CCC(Sc2ccc(C)cc2)Sc2ccc(C)cc2)Sc2ccc(C)cc2)cc1`, the TGI in experiment [1], in experiment [8], in experiment [3], in experiment [4], in experiment [5] and in experiment [6] was greater than 100 µM each time.
For the compound `Cc1nc(Nc2ccc(Cl)cc2)sc1C(=O)NNc1ccc([N+](=O)[O-])cc1[N+](=O)[O-]`, the TGI was found to be 27 µM in [9]; 37.8 µM in experiment [1]; 28 µM in [8]; 30.9 µM in experiment [2]; 35.4 µM in experiment [4]; 41.7 µM in experiment [5]. The same compound registered a TGI in [6] of 32.4 µM.
On to `CC(=O)O[C@H]1CC[C@@]2(C)C(=CC[C@H]3[C@@H]4CC[C@H](c5cc(C(F)(F)F)n(C(C)=O)n5)[C@@]4(C)CC[C@@H]32)C1`, for which the TGI in experiment [7] was determined as 23.6 µM.
On to `c1cc(N(CCn2cccn2)CCn2cccn2)cc(N(CCn2cccn2)CCn2cccn2)c1`, for which the TGI in experiment [1], in experiment [8], in experiment [2], in experiment [3], in [4] and in [5] was greater than 100 µM throughout. For the same compound, the TGI in experiment [6] is greater than 100 µM.
Take `[Cl][Hg][Cl]`: in experiment [7], the GI50 was 15.5 µM and the TGI turned out to be 28.9 µM.
The corresponding values for `COc1ccc(-c2cc(=O)c3ccc(C)nc3[nH]2)cc1` are 55.2 µM and greater than 100 µM.
For `CCOC(=O)C1N(S(=O)(=O)c2ccc(C)cc2)CCC12c1ccccc1N(C(C)=O)C2c1ccc(OC)c(OC)c1` (stereo not drawn), the TGI in [1], in [8], in [2], in experiment [4], in experiment [5] and in experiment [6] was greater than 100 µM in each case.
`O=C1c2ccccc2C(Br)(Br)c2ccccc21`: the TGI is greater than 31.6 µM in experiment [9]; greater than 31.6 µM in experiment [1]; greater than 31.6 µM in experiment [8]; greater than 31.6 µM in experiment [2]; greater than 100 µM in experiment [4]; greater than 31.6 µM in experiment [5]. The TGI in experiment [6] was 97.8 µM.
For the compound `CC(=O)[CH-]C(C)=O.CC(=O)[CH-]C(C)=O.[CH2-]CCC.[CH2-]CCC.[Sn+4]`, the GI50 was 0.569 µM in experiment [9]; 0.475 µM in experiment [8]; 0.0493 µM in [2]; 1.36 µM in [4]; 0.262 µM in experiment [6]. Besides, the TGI worked out at 1.88 µM in [9]; 0.301 µM in [1]; 1.58 µM in experiment [8]; 0.185 µM in [2]; 2.65 µM in experiment [4]; 1.07 µM in [6].
Turning to `CC(=O)[O][Ga]([Cl])[O]C(C)=O`, the GI50 in experiment [9], in [1], in experiment [8], in experiment [2], in [3] and in experiment [4] was greater than 100 µM throughout. Besides, the values for the GI50 in experiment [5] and in [6] were 65.6 µM and greater than 100 µM, respectively. Besides, the TGI in [9], in experiment [1], in [8], in [2], in experiment [3] and in experiment [4] was greater than 100 µM each time. The TGI in [5] and in experiment [6] was greater than 100 µM each time.
Take `CC(C)=CC(=O)C/C(=N\NC(N)=S)C(=O)Nc1ccc(Cl)cc1`: the TGI in experiment [9], in experiment [1], in experiment [8], in experiment [2], in experiment [4] and in experiment [5] was greater than 100 µM in each case.
Consider `CC(C)=CCc1c(OC(=O)c2c(C)cc(O)cc2O)cc(CO)c(CO)c1O`, for which the TGI in experiment [7] came out at 34.8 µM.
On the same count and under the same terms, with `Cc1ccc(S(=O)(=O)NC(=O)C2C(=O)CC3(CCCCC3)CC2=O)cc1` the figure was greater than 100 µM; with `Oc1[nH]c2ccccc2c1N=Nc1ccccn1`, greater than 100 µM.
Take `COc1ccc(OC)c(/C(C)=N/NC(N)=S)c1`: the TGI in [9], in experiment [1], in experiment [8], in experiment [2], in experiment [4] and in experiment [5] was greater than 100 µM throughout. In [6], this compound returned a TGI greater than 100 µM.
For `C[N-]c1nnnn1C.[Au+].c1ccc([PH+](c2ccccc2)c2ccccc2)cc1`, the GI50 was 2.35 µM in experiment [9]; 2.57 µM in experiment [1]; 2.05 µM in experiment [8]; 1.37 µM in [2]; 4.05 µM in experiment [4]; 2.9 µM in experiment [5]. The TGI was 5.96 µM in [9]; greater than 100 µM in experiment [1]; 5.02 µM in experiment [8]; 2.83 µM in [2]; 10.3 µM in experiment [4]; 14.9 µM in [5].
Regarding `CN(C)CC(C)(C)/C(=N\Nc1ccccc1)c1ccccc1`, the TGI in experiment [9] was greater than 100 µM; in [1] it was greater than 100 µM; in [8], greater than 100 µM; in [2] it was 51.4 µM; in [4], 36.7 µM; in experiment [5], greater than 100 µM.
Turning to `COc1cccc(-c2cc(=O)c3cc(OC)ccc3[nH]2)c1`, in experiment [7], the TGI was determined as 0.131 µM.
Same read-out and setting: with `CC(C(=O)c1ccccc1)C(c1ccccc1)N1CCOCC1` (stereo not drawn) the figure was greater than 100 µM; with `CC(C)CCC(=O)c1ccoc1`, greater than 100 µM.
With `O=c1nc(/C=C/c2ccccc2Cl)cc2n1CCN2CCO`, the TGI in experiment [1], in experiment [8], in experiment [2] and in experiment [5] was greater than 100 µM throughout.
As to `COc1ccc(Nc2nc3ccc(C(F)(F)F)cc3nc2-c2ccccc2)cc1OC`, the TGI is greater than 100 µM in experiment [1]; greater than 100 µM in [8]; greater than 100 µM in experiment [2]; greater than 100 µM in experiment [3]; 85 µM in experiment [6].
On to `Cc1cc2c(ccc3c(C)cc(=O)oc32)o1`, for which the TGI in experiment [9], in [1], in experiment [8], in experiment [2], in experiment [3] and in [4] was greater than 100 µM in each case. In addition, the TGI in experiment [5] and in [6] was greater than 100 µM throughout.
In the case of `COc1ccc(S(=O)(=O)Nc2ccccc2C(=O)O)cc1`, the TGI in [9], in experiment [8], in experiment [2], in experiment [3], in experiment [4] and in experiment [5] was greater than 100 µM each time. In [6], the TGI was greater than 100 µM.
For `COc1ccc2c(CN3CCCCC3CO)cc3cc(OC)c(OC)cc3c2c1` (stereo not drawn), the TGI in experiment [9] is 38 µM; in experiment [1] it was 15.8 µM; in [8], greater than 100 µM; in experiment [2], 16.8 µM; in experiment [4], 15.2 µM; in experiment [5], 11.4 µM. Moreover, in [6], the TGI was 18.9 µM.
For the compound `C=C(COC(C)=O)CC(OC(C)=O)c1ccccc1` (stereo not drawn), the TGI in experiment [1], in experiment [8], in experiment [2], in experiment [4], in [5] and in experiment [6] was greater than 100 µM each time.
For the compound `CC(C)CC(NC(=O)c1cccc(O)c1O)C(=O)NCc1cc(CNC(=O)C(CC(C)C)NC(=O)c2cccc(O)c2O)cc(CNC(=O)C(CC(C)C)NC(=O)c2cccc(O)c2O)c1` (stereo not drawn), the TGI in experiment [9] was greater than 100 µM; in [1], 18.4 µM; in experiment [8], greater than 100 µM; in [2], 13.8 µM; in [4], 21 µM.
Consider `Cc1ccc(NC(=O)C2C(=O)N(c3ccc(C)cc3)C(=O)/C2=N\NC(N)=S)cc1` (stereo not drawn), for which the TGI in experiment [9], in experiment [1], in [2], in experiment [4], in [5] and in experiment [6] was greater than 100 µM in each case.
As for `CCCCCC(=O)C(C)C1=Nc2nnc(CCCCCCCc3nnc4n3C(=O)C(C(C)C(=O)CCCCC)=N4)n2C1=O` (stereo not drawn), the TGI in experiment [9], in experiment [1], in [8], in experiment [2], in [3] and in [4] was greater than 100 µM throughout. Further, the TGI in experiment [5] and in experiment [6] was greater than 100 µM each time.
Take `Cc1cc(=O)oc2cc(OC(=O)N(C)C)c(Cl)cc12`: in experiment [7], the TGI was greater than 100 µM.
As to `CC1CCC2(CC1)NN=c1s/c(=C\c3ccc(O)cc3)c(=O)n1N2` (stereo not drawn), the TGI in [9], in experiment [1], in experiment [8], in [2], in experiment [4] and in [5] was greater than 100 µM throughout. The TGI in experiment [6] was greater than 100 µM.
Consider `COc1ccc(OC)c2c1CC(C(=O)O)(C(=O)O)CC2=O`, for which the TGI in experiment [1], in experiment [2] and in experiment [4] was greater than 100 µM throughout.
For `COc1ccc2c(c1)N1CCc3cc(OC)c(OC)cc3C1C2` (stereo not drawn), the TGI in experiment [9], in [1], in [8], in experiment [2], in experiment [4] and in experiment [5] was greater than 100 µM each time. Moreover, in experiment [6], the TGI was greater than 100 µM.
